Patent US11236044B2, “Selective inhibitors of 12(S)-lipoxygenase (12-LOX) and methods for use of the same” (THE REGENTS OF THE UNIVERSITY OF MICHIGAN, priority 2018, dated 2022)
Like-named read-outs stand apart in the source and are kept apart here.

Experiments:
5-human lipoxygenase = molecular target: T1, 5-human lipoxygenase (Homo sapiens, UniProt P09917); conditions: 12-LOX versus paralog; cited from earlier work
T1 sequence (P09917 1-674): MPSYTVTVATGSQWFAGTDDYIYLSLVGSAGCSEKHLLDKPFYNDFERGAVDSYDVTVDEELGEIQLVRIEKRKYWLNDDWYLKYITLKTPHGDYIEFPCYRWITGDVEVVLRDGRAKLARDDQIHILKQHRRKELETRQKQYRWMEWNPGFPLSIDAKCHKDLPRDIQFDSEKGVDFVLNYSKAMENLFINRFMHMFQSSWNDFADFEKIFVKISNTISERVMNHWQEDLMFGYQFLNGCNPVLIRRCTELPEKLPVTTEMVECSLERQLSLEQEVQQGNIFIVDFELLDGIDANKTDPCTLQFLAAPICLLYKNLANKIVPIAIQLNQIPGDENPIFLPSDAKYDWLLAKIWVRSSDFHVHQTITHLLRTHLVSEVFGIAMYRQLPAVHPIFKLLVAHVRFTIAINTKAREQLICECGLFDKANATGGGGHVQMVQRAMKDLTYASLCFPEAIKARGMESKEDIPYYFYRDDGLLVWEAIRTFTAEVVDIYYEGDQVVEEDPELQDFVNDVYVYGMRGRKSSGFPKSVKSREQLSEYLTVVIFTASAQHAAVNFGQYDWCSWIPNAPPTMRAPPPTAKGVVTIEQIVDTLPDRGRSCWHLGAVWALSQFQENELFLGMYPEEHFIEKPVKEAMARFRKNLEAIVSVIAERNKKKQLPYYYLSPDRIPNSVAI

[1] = molecular target: T2, epithelial 15-human lipoxygenase type-2 (Homo sapiens, UniProt O15296); conditions: 12-LOX versus paralog; cited from earlier work
T2 sequence (O15296 1-676): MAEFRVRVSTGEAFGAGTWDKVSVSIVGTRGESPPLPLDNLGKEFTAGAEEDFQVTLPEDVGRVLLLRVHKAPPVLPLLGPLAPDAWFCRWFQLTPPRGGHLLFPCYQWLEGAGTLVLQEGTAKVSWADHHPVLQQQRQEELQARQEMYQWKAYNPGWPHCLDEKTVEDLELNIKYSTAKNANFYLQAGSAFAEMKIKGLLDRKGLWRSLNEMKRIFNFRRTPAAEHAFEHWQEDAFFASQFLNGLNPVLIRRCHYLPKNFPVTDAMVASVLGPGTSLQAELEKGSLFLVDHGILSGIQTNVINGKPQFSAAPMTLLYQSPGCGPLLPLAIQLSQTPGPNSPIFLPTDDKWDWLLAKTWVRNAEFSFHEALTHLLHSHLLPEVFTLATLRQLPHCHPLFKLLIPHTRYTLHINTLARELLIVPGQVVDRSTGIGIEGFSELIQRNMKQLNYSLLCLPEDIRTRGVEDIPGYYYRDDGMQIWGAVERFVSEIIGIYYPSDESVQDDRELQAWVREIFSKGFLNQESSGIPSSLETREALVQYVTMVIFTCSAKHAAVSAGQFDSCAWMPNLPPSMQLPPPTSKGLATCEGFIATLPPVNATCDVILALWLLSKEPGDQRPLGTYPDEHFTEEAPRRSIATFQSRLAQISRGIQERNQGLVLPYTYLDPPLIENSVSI

[2] = molecular target: T3, bovine cyclooxygenase (“COX”)-1 (Bos taurus, UniProt O62664); conditions: 12-LOX versus bovine COX-1; cited from earlier work
T3 sequence (O62664 25-600): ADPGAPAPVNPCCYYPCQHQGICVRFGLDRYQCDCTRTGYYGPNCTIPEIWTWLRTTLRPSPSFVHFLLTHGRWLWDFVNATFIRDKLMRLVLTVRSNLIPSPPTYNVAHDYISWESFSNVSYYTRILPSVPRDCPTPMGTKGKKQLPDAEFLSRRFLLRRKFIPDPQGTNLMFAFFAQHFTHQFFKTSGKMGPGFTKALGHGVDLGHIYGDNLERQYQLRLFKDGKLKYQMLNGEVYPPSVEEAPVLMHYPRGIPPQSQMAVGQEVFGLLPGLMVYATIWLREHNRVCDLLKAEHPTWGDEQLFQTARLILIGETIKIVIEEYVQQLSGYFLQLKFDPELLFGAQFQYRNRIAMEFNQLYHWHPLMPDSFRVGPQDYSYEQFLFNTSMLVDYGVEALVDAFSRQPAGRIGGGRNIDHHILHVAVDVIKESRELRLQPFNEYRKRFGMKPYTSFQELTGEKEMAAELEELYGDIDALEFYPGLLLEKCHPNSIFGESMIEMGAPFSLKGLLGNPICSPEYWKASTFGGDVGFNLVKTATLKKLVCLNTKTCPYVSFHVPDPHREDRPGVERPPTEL

human COX-2 = molecular target: T4, human COX-2 (Homo sapiens, UniProt P35354); conditions: 12-LOX versus human COX-2; cited from earlier work
T4 sequence (P35354 18-604): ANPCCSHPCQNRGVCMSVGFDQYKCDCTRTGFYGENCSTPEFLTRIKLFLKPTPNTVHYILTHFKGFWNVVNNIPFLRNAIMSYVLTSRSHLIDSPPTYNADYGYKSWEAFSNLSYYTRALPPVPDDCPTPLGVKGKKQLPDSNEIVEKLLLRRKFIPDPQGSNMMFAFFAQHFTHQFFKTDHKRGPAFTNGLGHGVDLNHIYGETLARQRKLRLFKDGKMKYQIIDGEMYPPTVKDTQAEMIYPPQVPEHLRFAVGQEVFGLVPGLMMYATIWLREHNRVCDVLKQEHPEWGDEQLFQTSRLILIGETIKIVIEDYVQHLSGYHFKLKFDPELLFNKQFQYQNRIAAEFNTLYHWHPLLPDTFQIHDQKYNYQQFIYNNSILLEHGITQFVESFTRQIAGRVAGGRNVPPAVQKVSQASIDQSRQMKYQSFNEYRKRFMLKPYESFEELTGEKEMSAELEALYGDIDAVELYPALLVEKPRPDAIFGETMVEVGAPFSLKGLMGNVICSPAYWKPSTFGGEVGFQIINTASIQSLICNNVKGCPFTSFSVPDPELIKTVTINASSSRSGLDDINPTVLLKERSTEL

[3] = cited from earlier work
[4] = test system: thrombus formation and vessel occlusion; conditions: cited from earlier work
[5] = in vivo; cited from earlier work
[6] = cited from earlier work; remark: listed apart in the source
[7] = molecular target: reticulocyte 15-human lipoxygenase type-1 (Homo sapiens, UniProt P16050); conditions: 12-LOX versus paralog; cited from earlier work
[8] = Pharmacokinetic study of the inhibitors in mice blood plasma (PO and IV); assay type: in vivo; conditions: for concentration at 2 h / concentration at 4 h / concentration at 7 h: mouse, plasma, 30 mg/kg
Experimental: Pharmacokinetic Study of the Inhibitors in Mice Blood Plasma
The blood plasma concentration of compounds A1, A2, and A4 in mice was determined following per os, oral compound administration (“PO”) and intravenous (“IV”) administration
Calibration curve. The concentration range was evaluated from 2.5-5000 ng/ml for compound A2, 1-5000 ng/ml for compound A4, and 5-5000 ng/ml for compound A1. The curve was built with linear regression with weighing (1/X2). The linear regression analysis was performed by plotting the peak area ratio (y) against the concentration (x) in ng/mL.
Instrument Conditions. The LC-MS and mass spectrometry conditions for the compounds tested are shown below.
Results. The individual and average compound A1, A2, and A4 concentration-time data for IV and PO dosed groups are listed in Table 1, and graphically presented in FIG. 1.

[9] = iv, IV 30 mg/kg, 2 h, n=3 (outliers excluded), read-out: Concentration in Plasma, Mean
[10] = iv, IV 30 mg/kg, 2 h, read-out: Concentration in Plasma, Mouse 1
[11] = iv, IV 30 mg/kg, 2 h, read-out: Concentration in Plasma, Mouse 2
[12] = iv, IV 30 mg/kg, 2 h, read-out: Concentration in Plasma, Mouse 3
[13] = iv, IV 30 mg/kg, 4 h, read-out: Concentration in Plasma, Mouse 1
[14] = iv, IV 30 mg/kg, 4 h, read-out: Concentration in Plasma, Mouse 3
[15] = iv, IV 30 mg/kg, 7 h, n=3 (outliers excluded), read-out: Concentration in Plasma, Mean
[16] = iv, IV 30 mg/kg, 7 h, read-out: Concentration in Plasma, Mouse 1
[17] = iv, IV 30 mg/kg, 7 h, read-out: Concentration in Plasma, Mouse 2
[18] = iv, IV 30 mg/kg, 7 h, read-out: Concentration in Plasma, Mouse 3
[19] = po, PO 30 mg/kg, 2 h, n=3 (outliers excluded), read-out: Concentration in Plasma, Mean
[20] = po, PO 30 mg/kg, 2 h, read-out: Concentration in Plasma, Mouse 3
[21] = po, PO 30 mg/kg, 4 h, n=3 (outliers excluded), read-out: Concentration in Plasma, Mean
[22] = po, PO 30 mg/kg, 4 h, read-out: Concentration in Plasma, Mouse 1
[23] = po, PO 30 mg/kg, 4 h, read-out: Concentration in Plasma, Mouse 3
[24] = po, PO 30 mg/kg, 7 h, n=3 (outliers excluded), read-out: Concentration in Plasma, Mean
[25] = po, PO 30 mg/kg, 7 h, read-out: Concentration in Plasma, Mouse 1
[26] = po, PO 30 mg/kg, 7 h, read-out: Concentration in Plasma, Mouse 2

reticulocyte 15-human lipoxygenase type-1, sequence (P16050 whole entry): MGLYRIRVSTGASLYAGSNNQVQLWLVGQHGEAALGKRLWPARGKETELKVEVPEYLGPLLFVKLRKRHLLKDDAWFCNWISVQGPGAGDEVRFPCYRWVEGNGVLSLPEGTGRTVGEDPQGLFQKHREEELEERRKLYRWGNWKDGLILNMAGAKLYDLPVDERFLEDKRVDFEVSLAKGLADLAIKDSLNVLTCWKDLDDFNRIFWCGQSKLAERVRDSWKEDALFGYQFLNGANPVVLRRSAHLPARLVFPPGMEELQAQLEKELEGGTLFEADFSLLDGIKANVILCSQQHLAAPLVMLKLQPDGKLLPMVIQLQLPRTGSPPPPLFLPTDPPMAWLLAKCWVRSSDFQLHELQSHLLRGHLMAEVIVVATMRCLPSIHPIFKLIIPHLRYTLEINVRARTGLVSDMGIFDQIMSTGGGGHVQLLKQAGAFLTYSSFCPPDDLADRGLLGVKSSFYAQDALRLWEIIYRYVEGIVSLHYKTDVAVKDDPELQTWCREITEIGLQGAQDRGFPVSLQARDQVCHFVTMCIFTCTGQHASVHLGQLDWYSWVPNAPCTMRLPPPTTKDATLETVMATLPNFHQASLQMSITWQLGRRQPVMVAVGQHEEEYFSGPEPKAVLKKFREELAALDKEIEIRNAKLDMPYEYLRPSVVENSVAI

concentration at 2 h [8, 9] | concentration at 2 h [8, 10] | concentration at 2 h [8, 11] | concentration at 2 h [8, 12] | concentration at 4 h [8, 13] | concentration at 4 h [8, 14] | concentration at 7 h [8, 15] | concentration at 7 h [8, 16] | concentration at 7 h [8, 17] | concentration at 7 h [8, 18] | concentration at 2 h [8, 19] | concentration at 2 h [8, 20] | concentration at 4 h [8, 21] | concentration at 4 h [8, 22] | concentration at 4 h [8, 23] | concentration at 7 h [8, 24] | concentration at 7 h [8, 25] | concentration at 7 h [8, 26] | SMILES | other results
– | – | – | – | – | – | – | – | – | – | – | – | – | – | – | – | – | – | COc1cccc(CNc2ccc(S(=O)(=O)Nc3nc4ccccc4s3)cc2)c1O [ML355] | selectivity versus 5-human lipoxygenase (5-human lipoxygenase): > 50 fold; selectivity versus epithelial 15-human lipoxygenase type-2 [1]: > 50 fold; selectivity versus bovine COX-1 [2]: > 100 fold; selectivity versus human COX-2 (human COX-2): > 100 fold; solubility [3]: limited solubility; thrombus formation and vessel occlusion in vivo [4]: impair thrombus formulation and vessel occlusion in vivo; effects on hemostasis ([4]; in vivo): minimal affects on hemostasis; pharmacokinetics [5]: reasonable pharmacokinetics; tolerance in preclinical studies [6]: relatively good tolerance; selectivity versus reticulocyte 15-human lipoxygenase type-1 [7]: > 50 fold
199 ng/mL | 144 ng/mL | 333 ng/mL | 118 ng/mL | 127 ng/mL | 96 ng/mL | 31 ng/mL | 49.3 ng/mL | 16.4 ng/mL | 27.4 ng/mL | 145 ng/mL | 230 ng/mL | 74.3 ng/mL | 38.9 ng/mL | 81.2 ng/mL | 91.3 ng/mL | 106 ng/mL | 76.8 ng/mL | COc1cccc(CNc2ccc(S(=O)(=O)Nc3cccc(C(F)(F)F)c3)cc2)c1O [Compound A2] | Concentration in Plasma, Mouse 2 ([8]; IV 30 mg/kg, 4 h): *1369.6 ng/ml; Concentration in Plasma, Mouse 2 ([8]; PO 30 mg/kg, 2 h): *6042.8 ng/ml; Concentration in Plasma, Mouse 3 ([8]; PO 30 mg/kg, 7 h): *301.8 ng/ml; concentration at 4 h ([8]; iv, IV 30 mg/kg, 4 h, n=3 (outliers excluded), read-out: Concentration in Plasma, Mean): 112 ng/mL; concentration at 2 h ([8]; po, PO 30 mg/kg, 2 h, read-out: Concentration in Plasma, Mouse 1): 59 ng/mL; concentration at 4 h ([8]; po, PO 30 mg/kg, 4 h, read-out: Concentration in Plasma, Mouse 2): 103 ng/mL
112 ng/mL | 94.2 ng/mL | 172 ng/mL | 71 ng/mL | 20.8 ng/mL | 20.6 ng/mL | 10.2 ng/mL | 24.1 ng/mL | 5.6 ng/mL | 0.8 ng/mL | 5260 ng/mL | 410 ng/mL | 33.6 ng/mL | 33.4 ng/mL | 33.8 ng/mL | 29 ng/mL | 33.2 ng/mL | 22.9 ng/mL | COc1cccc(CNc2ccc(S(=O)(=O)Nc3cccc(C4(C(F)(F)F)CC4)c3)cc2)c1O [Compound A4, 4-((2-hydroxy-3-methoxybenzyl)amino)-N-(3-(1-(trifluoromethyl)cyclopropyl)phenyl)benzenesulfonamide] | Concentration in Plasma, Mouse 1 ([8]; PO 30 mg/kg, 2 h): *20.2 ng/ml; Concentration in Plasma, Mouse 2 ([8]; PO 30 mg/kg, 4 h): *127.5 ng/ml; concentration at 4 h ([8]; iv, IV 30 mg/kg, 4 h, read-out: Concentration in Plasma, Mouse 2): 28.8 ng/mL; concentration at 2 h ([8]; po, PO 30 mg/kg, 2 h, read-out: Concentration in Plasma, Mouse 2): 642 ng/mL; concentration at 7 h ([8]; po, PO 30 mg/kg, 7 h, read-out: Concentration in Plasma, Mouse 3): 30.9 ng/mL
